Assay results reported in US20020037903A1, “Use of pyrimidine endothelin antagonists in companion animals” (priority 2000, published 2002).
Like-named read-outs stand apart in the source and are kept apart here.

Assays:
[1] = biological target: T1, ETB receptors (Homo sapiens, UniProt P24530); conditions: in man; cited from earlier work
T1 construct: host or cells: man (in vivo)
T1 sequence (P24530 27-442): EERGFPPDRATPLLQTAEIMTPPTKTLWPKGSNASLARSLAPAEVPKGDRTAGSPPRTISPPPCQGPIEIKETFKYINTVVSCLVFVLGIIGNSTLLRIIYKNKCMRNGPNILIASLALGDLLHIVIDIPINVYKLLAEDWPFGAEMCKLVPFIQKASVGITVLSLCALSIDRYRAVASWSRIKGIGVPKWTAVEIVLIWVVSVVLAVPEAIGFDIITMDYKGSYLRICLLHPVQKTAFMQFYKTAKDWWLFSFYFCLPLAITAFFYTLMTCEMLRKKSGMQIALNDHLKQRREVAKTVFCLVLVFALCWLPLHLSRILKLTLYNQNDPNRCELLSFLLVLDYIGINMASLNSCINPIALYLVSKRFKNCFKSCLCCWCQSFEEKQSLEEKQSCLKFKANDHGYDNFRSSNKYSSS

[2] = test system: ETA/B receptor; conditions: hypertensive patients; cited from earlier work
[3] = test system: dog renal artery strips (ET-1-induced contraction); test: Test A: inhibition of contraction induced by ET-1 in dog renal artery strips to generate Kb values; assay type: cell-based, beagle dogs; conditions: Canis lupus familiaris, 1.25 h, ET-1 contraction, 75 minutes incubation with test compound, single concentration, read-out: Apparent Kb
Description: Inhibition of Contraction Induced by ET-1 in Dog Renal Artery Strips to Generate Kb Values
A Kb value is a measure of functional activity, and this is taken to be the free plasma concentration of a test compound required to provide efficacy.
Renal arteries from beagle dogs (body weight 9-15 kg) were cut into spirals and divided into 5 mm long strips. The side of each strip that was adjacent to the lumen of the vessel was gently rubbed to remove the endothelium. […] The tension generated by each strip was recorded isometrically. After incubating the tissues with test compound for 75 minutes, cumulative concentration response curves were constructed to ET-1 in the presence of 10 μM Bestatin, 10 μM Captopril, 10 μM Thiorphan, 50 μM indomethacin and 0.001% BSA. Only a single ET-1 curve was constructed in each tissue and tension increases expressed as a percentage of the response to 120mM KCl determined before the addition of the test compound. […] This is the ratio of the EC50 in the presence of the test compound divided by the EC50 in its absence. The DR is then put into the following equation:
apparent pKb=log(DR−1)−log[B] (where B=molar concentration of test compound)

[4] = Test B: pharmacokinetic study in the dog, plasma concentrations after i.v. infusion; assay type: in vivo; conditions: for Estimated % of Kb at 24 hours following 2.0 mg/kg i.v. dose: 0.5 mg/kg value multiplied by 4; for % of Kb at 24 hours following 0.5 mg/kg i.v. dose: free plasma concentration as percentage of Kb from Test A; for concentration at 24 h: plasma, intravenous, 0.5 mg/kg
Procedure: In order to assess the potential of test ET antagonists to provide efficacy, a pharmacokinetic study in the dog was carried out.
Blood samples were taken at various time points and centrifuged to provide plasma samples. These samples were analysed using Mass Spectrometry to provide total plasma concentrations.
Total plasma concentrations in the dog were determined by comparison with the standard line constructed (using the spiked plasma samples) to cover the expected concentration range.
(c) Calculation of free plasma concentrations [formula] or % protein bound=(1−Fu)×100
The free plasma concentrations of the compound can then be determined.
Free plasma concentration=total plasma concentration (from method (a))×fraction unbound (from method (b))

[5] = Test B(b): plasma protein binding by equilibrium dialysis; assay type: in vitro ADME; conditions: dog, canine plasma
Description: (b) Determination of plasma protein binding by equilibrium dialysis
An example of a method used is described below.
Plasma containing the test compound was placed in a chamber (half-cell), separated by a semi-permeable membrane (Spectra/Por™ 1 47 mm diam MWCO 6-8000) from isotonic buffer at physiological pH in the other half-cell. The system was allowed to equilibrate, such that low molecular weight compounds distributed evenly between the two chambers (plasma and buffer), whilst high molecular weight molecules were restricted to the plasma chamber. At equilibrium the concentration of the unbound test compound is the same on either side of the membrane. The concentration of total test compound in each half-cell was then determined (using essentially the described above) and the extent of plasma protein binding calculated.
The Spectra/Por™ Equilibrium Dialyzer used to determine protein binding was supplied by NBS Biologicals.

[6] = test system: ET-1-induced pressor response; test: Test C: inhibition of ET-1-induced pressor response in conscious beagle dogs; assay type: in vivo
Procedure: Inhibition of ET-1-induced Pressor Response in Conscious Beagle Dogs
Studies were performed in surgically prepared conscious beagle dogs (13-17 kg) which were well adjusted to the laboratory environment. Surgical preparation was performed under recovery anaesthesia to insert an indwelling aortic catheter with external access between the scapulae and protruding subcutaneous ECG studs, positioned for the recording of lead 11 electrocardiograms. During studies dogs were placed, unrestrained, in “Pavlov” type slings. The aortic catheter was connected to a pressure transducer for the measurement of systemic arterial pressure and ECG studs, via patient cables, to a bio-amplifier for the recording of electrocardiograms. ET-1 was administered as a 15 min infusion (25 pmoles/kg/min) via a temporary catheter inserted into the saphenous vein. Test compound or placebo was administered by oral gavage (0.5 or 2.0 mg/kg) at 1 and 24 hours prior to the infusion of ET-1. Individual studies investigated no more than a single dose of test compound or placebo at any one time. Systemic arterial pressure and electrocardiograms were recorded for one hour prior to and one hour after the start of the infusion of ET-1. Test compounds were evaluated by comparing the effects of placebo or test compound on the magnitude of pressor response elicited by ET-1.

[7] = test system: dogs with pacing-induced CHF; test: Congestive heart failure induced by rapid ventricular pacing in dogs; assay type: in vivo
Procedure: A group of animals receiving ACE-inhibitor treatment served as positive control.
Heart failure was induced by rapid ventricular pacing, which is a well established and extensively documented model It is the only heart failure model that allows control of the degree of heart failure by adjusting the pacing rate.
Dogs were paced throughout the study at pacing rates up to 220-240 bpm leading to steadily progressing CHF.
Group 1: Placebo (Furosemide 4 mg/kg/day BID per os, n=6)
Group 2: ET-receptor antagonist (2 mg/kg/day SID per os+Furosemide as above, n=6)
Group 3: Enalapril maleate (1 mg/kg/day BID per os+Furosemide as above)
(n=6, positive control) was initiated 2 weeks after start of pacing and continued for 3 weeks.
Throughout the study, both clinical parameters (heart murmurs, edema formation, dyspnoe) as well as haemodynamic (CO, blood pressure, cardiac contractility, and heart rate) and humoral parameters (plasma catecholamines, ANF, ET-1) were measured to determine morbidity and quality of life of the animals.
Dosing of the animals during the 3-week treatment period took place BID@8 am and 4 pm:
Improvement in cardiac function is illustrated by the effect of Compound X on the left ventricular enddiastolic pressure (LVEDP) in resting dogs before and during progressive CHF induced by pacing at […]. Test compounds were given for 3 weeks while pacing continued. In the graph below, the Y-axis is LVEDP in mm, and the X-axis is the time in weeks. […] [In the study, 5 dogs were treated with placebo, 3 dogs were treated with enalapril, and 5 dogs were treated with Compound X] [drawing 5]
Dogs were paced for 2 weeks to develop CHF and then assigned to oral gavage treatment with either placebo (vehicle), Compound X (2 mg/kg/day, sid), or enalapril (1 mg/kg/day, bid). In addition, all animals received the diuretic furosemide (4 mg/kg/day, bid) throughout treatment period. During the 3-week treatment period, rapid ventricular pacing was continued. Pacing led to deterioration of myocardial and circulatory function with progression of CHF as indicated by increases in left ventricular enddiastolic pressure (LVEDP) and reductions of cardiac contractility and output. In addition, all animals were assessed for clinical parameters of CHF by an independent veterinarian.
Throughout the study dogs were studied twice weekly at rest and during standardised exercise on a treadmill at two different speeds.

[8] = test system: neointimal formation; conditions: after balloon angioplasty; cited from earlier work
[9] = test system: heart disease in dogs; conditions: veterinary clinical trial, dogs with heart disease; cited from earlier work
[10] = 0.5 mg/kg i.v. infusion over 10 minutes, read-out: Total plasma concentration at 24 hours following 0.5 mg/kg iv dose
[11] = total plasma concentration x fraction unbound, read-out: Free concentration at 24 hours following 0.5 mg/kg i.v. dose
[12] = 2 mg/kg/day sid p.o. plus furosemide, 3 weeks

Structure (SMILES)	Kb [3]	Estimated % of Kb at 24 hours following 2.0 mg/kg i.v. dose [4]	% of Kb at 24 hours following 0.5 mg/kg i.v. dose [4]	concentration at 24 h [4, 10]	concentration at 24 h [4, 11]	fraction unbound [5]	further results
CCCC[C@@H](NC(=O)[C@@H](Cc1cn(C(=O)OC)c2ccccc12)NC(=O)[C@H](CC(C)(C)C)NC(=O)N1[C@H](C)CCC[C@@H]1C)C(=O)O [BQ-788]	–	–	–	–	–	–	Effect on peripheral resistance [1]: increase peripheral resistance
COc1ccccc1Oc1c(NS(=O)(=O)c2ccc(C(C)(C)C)cc2)nc(-c2ncccn2)nc1OCCO [Bosentan]	–	–	–	–	–	–	Effect on blood pressure [2]: decreased blood pressure
COc1ccccc1Oc1c(NS(=O)(=O)CCc2ccccc2)nc(-c2ncccn2)nc1OC [Compound X, N-[6-methoxy-5-(2-methoxyphenoxy)-2-(2-pyrimidinyl)-4-pyrimidinyl]-2-phenylethansulphonamide]	86 nM	196%	49%	466 nM	41.9 nM	0.09	Change in arterial pressure elicited by ET-1 ([6]; 0.5 mg/kg p.o., 1 hour prior to ET-1 infusion): 3 ΔmmHg; Change in arterial pressure elicited by ET-1 ([6]; 2.0 mg/kg p.o., 24 hours prior to ET-1 infusion): 3 ΔmmHg; inhibition at 0.5 mg/kg ([6]; Canis lupus familiaris, po, 0.5 mg/kg p.o., 1 hour prior to ET-1 infusion): 76%; inhibition at 2 mg/kg ([6]; Canis lupus familiaris, po, 2.0 mg/kg p.o., 24 hours prior to ET-1 infusion): 80%; Arterial blood pressure (BP) [7, 12]: lower arterial blood pressure; Cardiac output [7, 12]: maintained or even increased cardiac output; LVEDP at rest and during treadmill exercise [7, 12]: significantly improved LVEDP not only under resting conditions but even more so during treadmill exercise; LVEDP relative to pre-treatment values [7, 12]: lowered LVEDP below pre-treatment values; Left ventricular enddiastolic pressure (LVEDP) in resting dogs ([7]; 2 mg/kg/day sid p.o. plus furosemide, 3 weeks, pacing 210-240 bpm, versus placebo and enalapril): Significant improvements over both placebo and enalapril; Exercise tolerance ([7]; all treated animals, placebo group three out of six developed exercise intolerance): maintained exercise tolerance throughout the study; Heart failure class, NYHA scale (I-IV) ([7]; all treated animals, placebo group three out of six reached class III): class II
COCCOc1nc(-c2ncccn2)nc(NS(=O)(=O)CCc2ccccc2)c1Oc1ccccc1OC [Example 2, WO 98/57938]	136 nM	<32%	<8%	< 93 nM	< 11 nM	0.12	–
COc1cc(OC)nc(O[C@H](C(=O)O)C(OC)(c2ccccc2)c2ccccc2)n1 [LU 135,252]	111 nM	4.8%	1.2%	40 nM	1.3 nM	0.032	–
CCCOc1ccc2c(c1)[C@@H](c1ccc(OC)cc1OCC(=O)O)[C@H](C(=O)O)[C@H]2c1ccc2c(c1)OCO2 [SB-209670]	–	–	–	–	–	–	Reduction in neointimal formation relative to control animals [8]: 50%
CCOC(=O)[C@H](CCc1ccccc1)N[C@@H](C)C(=O)N1CCC[C@H]1C(=O)O [enalapril]	–	–	–	–	–	–	Cardiac function [9]: did not improve cardiac function; Disease progression [9]: significant slow down in disease progression
